This is an account of results in article PMC5007854, “β-Nitrostyrenes as Potential Anti-leishmanial Agents” (Frontiers in Microbiology, 2016).

As usually defined, the melting point is the temperature, or range, at which the solid turns liquid. The MIC is the lowest concentration found to suppress growth. As usually defined, the MBC is the lowest tested concentration that kills the bacteria rather than only halting them. A word on the MFC: it is the smallest concentration meeting the test's criterion for killing the fungus. For orientation: IC50 means the concentration at which inhibition is half-maximal.

Values after ≈ are worked out from the molar mass of the structure shown. Like-named read-outs stand apart in the source and are kept apart here.

Data set [1] deals with L. donovani promastigotes. In words: Anti-leishmanial screening at 100 μM, parasite viability by microscopy. It is filed as cell-based, Leishmania donovani. As to conditions: 100 μM, 72 h, phase contrast microscope. Here is the method: (§1) L. donovani parasites (MHOM/IN/83/AG83) were maintained in vivo in BALB/c mice. Promastigotes were routinely cultured at 22°C in medium M199 supplemented with 10% heat inactivated fetal bovine serum (FBS, HiMedia Laboratories, Mumbai, India), penicillin 100 (IU/ml), streptomycin (100 μg/ml). Log phase promastigotes were sub-cultured every 72–96 h, the inoculum being 2 × 10^6 cells/ml (Afrin et al., [2002]).
Nitrostyrine series were screened for their antileishmanial activity against L. donovani promastigotes in vitro. Promastigotes of L. donovani (2 × 10^6 cells/mL) in M199 medium were incubated at 22°C for 72 h with each compound at a concentration of 100 μM. Amphotericin B (AmB) served as reference drug, 0.2% DMSO was used as solvent control. Parasites with media alone were taken as control. Parasite viability was determined microscopically after 72 h (Islamuddin et al., [2014b]).

Data set [2] has as its system Staphylococcus epidermidis ATCC 14990. Nature of the data set: Broth microdilution antibacterial susceptibility (MIC/MBC). It is filed as cell-based. To be noted: for MIC / MBC: Staphylococcus epidermidis; for MIC: ATCC14990, 24 h. Put shortly:
(§2)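 CLSI broth microdilution: Ca/Mg-supplemented Mueller-Hinton for bacteria (~5 × 10^5 CFU/mL, 24 h), MOPS-buffered RPMI 1640 pH 7.0 for fungi (Candida ~2.5 × 10^4, Aspergillus 0.4-5 × 10^4 CFU/mL, 48 h), 35°C, 1% DMSO, 64 to 0.12 μg/mL. MIC read visually; MBC/MFC by plating clear wells.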
On the technique in general: Dilution methods test growth across graded concentrations, often in twofold steps.

Data set [3] has as its system Pseudomonas aeruginosa ATCC 27853. Described as above. It is filed as cell-based. As to conditions: for MIC / MBC: Pseudomonas aeruginosa; for MIC: ATCC27853, 24 h. Put shortly:
as §2

In data set [4] the test system is Escherichia coli ATCC 25922. The description is as above. As to conditions: for MIC / MBC: Escherichia coli; for MIC: ATCC25922, 24 h. It is filed as cell-based. Summed up:
as §2

The subject of data set [5] is Staphylococcus aureus ATCC 29213. The data set is described as above. It is filed as cell-based. To be noted: for MIC / MBC: Staphylococcus aureus; for MIC: ATCC29213, 24 h. Summed up: as §2
The test system of data set [6] is Candida albicans ATCC 90028. Nature of the data set: Broth microdilution antifungal susceptibility (MIC/MFC). It is filed as cell-based. To be noted: for MIC / MFC: Candida albicans; for MIC: ATCC90028, 48 h. Put shortly:
as §2

For data set [7], the system named is Aspergillus fumigatus ATCC 16424. The data set is described as above. The format is cell-based. To be noted: for MIC / MFC: Aspergillus fumigatus; for MIC: ATCC16424, 48 h. Put shortly:
as §2

For data set [8], the system named is Aspergillus niger ATCC 16404. The data set is described as above. To be noted: for MIC / MFC: Aspergillus niger; for MIC: ATCC16404, 48 h. It is filed as cell-based. Summed up: as §2
Data set [9] concerns Candida glabrata ATCC 90030. Described as above. To be noted: Nakaseomyces glabratus. The format is cell-based. Put shortly:
as §2

For data set [10], the system named is L. donovani promastigotes. In words: Dose-dependent anti-promastigote activity, IC50 and IC90. It is filed as cell-based, Leishmania donovani. The method, then:
as §1
AmB was used as a standard antileishmanial drug control. The cell viability was evaluated by microscopically and the mean percentage viability was calculated as follows: Mean cell number of treated parasites / Mean cell number of untreated parasites × 100. The 50 and 90% inhibitory concentration (IC50 and IC90) i.e., the concentration of drugs that decreased the cell growth by 50 and 90% respectively was determined by graphical extrapolation after plotting the graph of % viability vs. concentration of drug (Islamuddin et al., [2014b]).
In vitro antileishmanial activity was expressed as IC50 by linear regression analysis. Values are mean ± SE of samples in triplicate from at least three independent experiments. Statistical analysis was performed using ANOVA followed by Dunnett's test. ^*P < 0.05, ^**P < 0.01 and ^***P < 0.001 compared with the untreated control group were considered significant.

The mark [11] stands for this setting: broth microdilution, 35°C, 24 h.
Setting [12] is: broth microdilution, 35°C, 48 h.

Consider `C/C(=C\c1ccc([N+](=O)[O-])cc1)[N+](=O)[O-]` [Compound 8, 1-nitro-4-((E)-2-nitroprop-1-enyl) benzene], for which the melting point was in the range of 114 to 116 °C. Also, in [1], the “Parasite viability after treatment” value was “All the parasites were found to be dead”. For the same compound, the MIC in data set [2] (read-out: MIC, Se ATCC 14990, broth microdilution, 35°C, 24 h) stood at 16 µg/mL (≈ 76.9 µM). Further, the MBC in data set [2] (ATCC14990, read-out: MBC, Se ATCC 14990) is 16 µg/mL (≈ 76.9 µM). The MIC in [3] (read-out: MIC, Pa ATCC 27853, broth microdilution, 35°C, 24 h) amounted to 64 µg/mL (≈ 307 µM). In data set [3] (ATCC27853, read-out: MBC, Pa ATCC 27853), the MBC is > 64 µg/mL. In addition, the MIC in data set [4] (read-out: MIC, Ec ATCC 25922, broth microdilution, 35°C, 24 h) is 64 µg/mL (≈ 307 µM). Also, the MBC in data set [4] (ATCC25922, read-out: MBC, Ec ATCC 25922) was > 64 µg/mL. In addition, the MIC in [5] (read-out: MIC, Sa ATCC 29213, broth microdilution, 35°C, 24 h) was determined as 16 µg/mL (≈ 76.9 µM). In data set [5] (ATCC29213, read-out: MBC, Sa ATCC 29213), the MBC turned out to be 32 µg/mL (≈ 154 µM). The MIC in data set [6] (read-out: MIC, Ca ATCC 90028, broth microdilution, 35°C, 48 h) was 4 µg/mL (≈ 19.2 µM). The MFC in data set [6] (ATCC90028, read-out: MFC, Ca ATCC 90028) stood at 4 µg/mL (≈ 19.2 µM). Besides, the minimum inhibitory concentration (MIC) in [7] (read-out: MIC, Af ATCC 16424, broth microdilution, 35°C, 48 h) was determined as 4 µg/mL (≈ 19.2 µM). The MFC in [7] (ATCC16424, read-out: MFC, Af ATCC 16424) is 4 µg/mL (≈ 19.2 µM). In addition, the MIC in data set [8] (read-out: MIC, An ATCC 16404, broth microdilution, 35°C, 48 h) came out at 2 µg/mL (≈ 9.61 µM). For the same compound, the MFC in data set [8] (ATCC16404, read-out: MFC, An ATCC 16404) is 2 µg/mL (≈ 9.61 µM). For the same compound, in [9] (ATCC90030, 48 h, read-out: MIC, Cg ATCC 90030, broth microdilution, 35°C, 48 h), the minimum inhibitory concentration (MIC) amounted to 1 µg/mL (≈ 4.8 µM). In data set [9] (ATCC90030, read-out: MFC, Cg ATCC 90030), the MFC came out at 1 µg/mL (≈ 4.8 µM).

On to `C/C(=C\c1ccc(O)cc1)[N+](=O)[O-]` [Compound 17, 4-((E)-2-nitroprop-1-enyl) phenol], for which the melting point was in the range of 122 to 124 °C. Moreover, in data set [1], the “Parasite viability after treatment” value is given as “All the parasites were found to be dead”. Besides, the “Anti-leishmanial activity, in words (compounds with IC50 determined)” value in data set [10] (L. donovani promastigotes) is on record as “moderately active”. Besides, the IC50 in data set [10] (Leishmania donovani, 72 h, 22°C, values given in μM, read-out: IC50 against promastigotes) was found to be 39.4 ± 1.36 µM. In addition, the MIC in [2] (broth microdilution, 35°C, 24 h, read-out: MIC, Se ATCC 14990) was in the range of 2 to 16 µg/mL (≈ 11.2 to 89.3 µM). In addition, the MBC in data set [2] (ATCC14990, ≥99.9% reduction of original inoculum, read-out: MBC, Se ATCC 14990) stood at 2 µg/mL (≈ 11.2 µM). Further, in data set [2] (setting [11]), the “MIC, Se ATCC 14990” value came to 2 µg/mL (≈ 11.2 µM). In addition, the MIC in data set [3] (broth microdilution, 35°C, 24 h, read-out: MIC, Pa ATCC 27853) was in the range of 16 to 32 µg/mL (≈ 89.3 to 179 µM). Also, the minimum bactericidal concentration (MBC) in data set [3] (ATCC27853, ≥99.9% reduction of original inoculum, read-out: MBC, Pa ATCC 27853) was determined as 32 µg/mL (≈ 179 µM). In addition, in data set [3] (setting [11]), the “MIC, Pa ATCC 27853” value is 16 µg/mL (≈ 89.3 µM). In addition, the MIC in data set [4] (broth microdilution, 35°C, 24 h, read-out: MIC, Ec ATCC 25922) was 16 to 32 µg/mL (≈ 89.3 to 179 µM). Also, the MBC in data set [4] (ATCC25922, ≥99.9% reduction of original inoculum, read-out: MBC, Ec ATCC 25922) was found to be 16 µg/mL (≈ 89.3 µM). Also, the “MIC, Ec ATCC 25922” value in data set [4] (setting [11]) came out at 16 µg/mL (≈ 89.3 µM). The MIC in data set [5] (broth microdilution, 35°C, 24 h, read-out: MIC, Sa ATCC 29213) lay within 2 to 32 µg/mL (≈ 11.2 to 179 µM). Further, in data set [5] (ATCC29213, ≥99.9% reduction of original inoculum, read-out: MBC, Sa ATCC 29213), the minimal bactericidal concentration (MBC) was 4 µg/mL (≈ 22.3 µM). The “MIC, Sa ATCC 29213” value in data set [5] (setting [11]) worked out at 4 µg/mL (≈ 22.3 µM). Further, the minimum inhibitory concentration (MIC) in data set [6] (broth microdilution, 35°C, 48 h, read-out: MIC, Ca ATCC 90028) fell in the range of 4 to 32 µg/mL (≈ 22.3 to 179 µM). Further, the MFC in [6] (ATCC90028, ≥99.9% reduction of original inoculum, read-out: MFC, Ca ATCC 90028) amounted to 8 µg/mL (≈ 44.6 µM). Further, in [6] (setting [12]), the “MIC, Ca ATCC 90028” value was 8 µg/mL (≈ 44.6 µM). In addition, the MIC in data set [7] (broth microdilution, 35°C, 48 h, read-out: MIC, Af ATCC 16424) fell in the range of 4 to 8 µg/mL (≈ 22.3 to 44.6 µM). Further, the MFC in [7] (ATCC16424, ≥99.9% reduction of original inoculum, read-out: MFC, Af ATCC 16424) worked out at 8 µg/mL (≈ 44.6 µM). The “MIC, Af ATCC 16424” value in data set [7] (setting [12]) came out at 8 µg/mL (≈ 44.6 µM). Further, the MIC in data set [8] (broth microdilution, 35°C, 48 h, read-out: MIC, An ATCC 16404) fell in the range of 2 to 4 µg/mL (≈ 11.2 to 22.3 µM). Moreover, the MFC in [8] (ATCC16404, ≥99.9% reduction of original inoculum, read-out: MFC, An ATCC 16404) came to 4 µg/mL (≈ 22.3 µM). Further, in data set [8] (setting [12]), the “MIC, An ATCC 16404” value worked out at 4 µg/mL (≈ 22.3 µM). Besides, the MFC in data set [9] (ATCC90030, ≥99.9% reduction of original inoculum, read-out: MFC, Cg ATCC 90030) was determined as 8 µg/mL (≈ 44.6 µM).
